The supplement of paper PMC5770543
± gives the standard deviation.

How the values were obtained:
[1] = test system: Toxoplasma gondii RH tachyzoites; assay: % growth inhibition vs DMSO (48 h luciferase); higher = more inhibition; conditions: 10 µM
[2] = test system: Plasmodium falciparum 3D7; assay: % inhibition of schizont-to-ring transition vs DMSO; higher = more inhibition
Outline: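 Tightly synchronised P. falciparum schizonts (about 40–42 hours post-invasion, 1% parasitemia, 2.5% hematocrit, AlbuMAX-supplemented RPMI) were exposed to compound at 1, 3 or 10 µM, with vehicle and positive controls. Cells were glutaraldehyde-fixed, Triton-permeabilised, stained with Hoechst 33342 and counted by flow cytometry (at least 100,000 events). Schizont-to-ring transition inhibition is new ring formation relative to vehicle controls, averaged over three experiments.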

[3] = test system: Toxoplasma gondii RH tachyzoites; assay: plaque count per well; higher = less inhibition; extreme values may be limits of the assay; conditions: 10 µM; 8-10 days
Method: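 T. gondii RH tachyzoites expressing firefly luciferase were grown in HFF monolayers for 48 h with compound. % growth inhibition at 10 µM and EC50 (2-fold dilutions from 10 µM) were read by luminescence relative to 1% DMSO; EC50 listed as 10 (not determined, <80% inhibition) is left out. Plaque assays: 50 tachyzoites per well with 10 µM compound for 8-10 days, giving plaque count and area by crystal violet/ImageJ. Egress: median time to egress after 1 µM A23187 ionophore following 24 h of 10 µM compound (DMSO ~1.8 min; >10 = no egress within 10 min).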

[4] = test system: Plasmodium falciparum 3D7; assay: EC50 growth inhibition (60 h, SYBR Green); conditions: stage: ring-stage start
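For % growth inhibition vs DMSO (48 h luciferase) in this document: tested in triplicate wells of 96-well plates on confluent HFF monolayers, with 1% DMSO wells as negative control in four replicates.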

SMILES | % growth inhibition [1] [%] | % inhibition of schizont-to-ring transition ([2]; 1 µM) [%] | % inhibition of schizont-to-ring transition ([2]; 3 µM) [%] | % inhibition of schizont-to-ring transition ([2]; 10 µM) [%] | plaque count per well [3] | EC50 growth inhibition [4] [µM]
Cc1cc(C)c2nc(N3CCC(C(=O)NCCCN4CCC(N5CCCCC5)CC4)CC3)sc2c1 | < 0 | 18.8 | 46.7 | 59.8 | 16 | 1.08
Cc1ccc(CN2CCC(C(=O)Nc3ccc(-c4cc5ccccc5[nH]4)cc3)CC2)o1 | < 0 | 21.9 | 44.3 | 68.2 | 38 | 2.17
Cc1cc(=O)oc2c1ccc1oc(C(=O)c3ccccc3)c(C)c12 | < 0 | 10.7 | 25.9 | 45.3 | 28 | 1.87
CCOC(=O)C1CCN(C(=O)CN2C(=O)c3ccccc3C2c2c[nH]c3ccccc23)CC1 (stereo not given) | < 0 | 15.7 | 32.3 | 65.4 | 31 | 0.971
CCN1CCN(Cc2ccc(NC(=O)c3cc4ccc5cccnc5c4[nH]3)cc2)CC1 | < 0 | 36.2 | 49.2 | 55.2 | 31 | 0.161
CCc1ccc(CNCC(O)c2ccccc2)cc1 (stereo not given) | < 0 | 12.2 | 14.9 | 45.9 | 21 | 4.01
Cc1ccc(-c2cc(C(=O)Nc3ccc(S(=O)(=O)N4CCCCC4)cc3)[nH]n2)c(O)c1 | < 0 | 28.1 | 58.9 | 67.5 | 18 | 9.18
CCc1c(C)c(=N)c2ccccc2n1C | < 0 | 5.96 | 11.3 | 33.6 | 25 | 3.38
COc1nc(Nc2ccc(C(C)C)cc2)nc(OC)n1 | < 0 | 20.3 | 32.6 | 54.9 | 30 | 2.54
Cc1cc(C=C2SC(=Nc3ccccc3)N(C3CCCC3)C2=O)c(C)n1-c1ccc(Cl)cc1 | < 0 | 17.8 | 26.2 | 37.9 | 23 | 5.27
Cc1ccc(F)cc1NC(=O)c1cc(Cl)ccc1Nc1ccccc1 | < 0 | 54.4 | 70.7 | 81.9 | 26 | 1.79
CCOc1cc2c(cc1OCC)C(c1cc(C)c(O)c(C)c1)NCC2 (stereo not given) | 14.9 ± 14 | 6.53 | 17.1 | 43.5 | 31 | 0.792
COc1ccc(CN2CCN(Cc3ccccc3)CC2)c(O)c1 | 11.2 ± 5.4 | 13.1 | 19.6 | 40.3 | 29 | 2.17
COc1cccc(Nc2nc(N)c3ccccc3n2)c1 | < 0 | < 0 | 12.3 | 41.7 | 0 | 1.32
Cc1cc(N2CCN(C3CCCC3)CC2)n2c(nc3ccccc32)c1C#N | < 0 | 33.3 | 39.3 | 51.3 | 30 | 0.878
COc1ccc(C)c2sc(N(Cc3cccnc3)C(=O)c3ccc(C#N)cc3)nc12 | < 0 | 21.7 | 24.1 | 58.5 | 23 | –
CN(C)c1ccc(N=Cc2ccc(N3CCOCC3)cc2)cc1 | < 0 | 17.3 | 20 | 24 | 22 | –
O=C(NC1CCN(Cc2ccccc2)CC1)c1cc2nc(-c3ccc(Cl)s3)cc(C(F)(F)F)n2n1 | < 0 | 13.4 | 13.8 | 27.3 | 22 | –
Cc1ccc(N2C3c4ccccc4N(S(=O)(=O)c4ccc(C)cc4)C2c2ccccc2N3S(=O)(=O)c2ccc(C)cc2)cc1 | 19.1 ± 3 | < 0 | 5.25 | 18.3 | 0 | –
COc1ccc(C2C(C(=O)Nc3cccc(OC)c3)c3ccccc3C(=O)N2C2CCCCC2)cc1 (stereo not given) | 13.5 ± 15 | 12.8 | 71.3 | 76.4 | 0 | –
COc1cc(C(=O)Nc2nc3c(cc4c5c(cccc53)CC4)s2)cc(OC)c1OC | 4.43 ± 6.7 | 3.9 | 8.08 | 22.5 | 38 | –
CCCCCCc1cc2cc(-c3nc4ccccc4[nH]3)c(=Nc3ccccc3C)oc2cc1O | < 0 | 9.35 | 11.5 | 23.5 | 3 | –
CCCCCCOC(=O)C1=C(C)NC(=O)NC1c1ccccc1F (stereo not given) | < 0 | 32.7 | 32.8 | 40.9 | 31 | –
Cc1cc(NC(=O)c2cccc(C(F)(F)F)c2)n(-c2nc(-c3ccc4c(c3)OCO4)cs2)n1 | < 0 | 13.2 | 16.2 | 18.9 | 26 | –
O=C1c2ccccc2-c2nnc(-c3ccc(Br)cc3)cc21 | < 0 | 5.35 | 17.7 | 32.6 | 24 | –
COc1ccc(CCN2C(=O)c3[nH]nc(-c4cc(Cl)c(C)cc4O)c3C2c2ccccc2F)cc1 (stereo not given) | < 0 | 20 | 20.6 | 46.1 | 0 | –
CC1CCN(Cc2c(O)ccc3cc(-c4nc5ccccc5s4)c(=O)oc23)CC1 | 18.7 ± 17 | 6.51 | 20.3 | 38.2 | 0 | –
